Laboratory results reported in patent US20250066370A1, “BICYCLIC TRIAZINE DERIVATIVES FOR THE TREATMENT OF CANCER” (DEUTSCHES KREBSFORSCHUNGSZENTRUM, priority 2022, published 2025).

What was measured:
CDK9/CyclinT1 = CDK9/CyclinT1 (Homo sapiens (Human), UniProt P50750); assay: CDK9/CycT1 high ATP kinase assay (TR-FRET); type: biochemical; details: 2 mM ATP (high ATP); median; read-out: CDK9/CyclinT1, 2 mM ATP (high ATP), IC50 - [mol/l] (median)
Method: CDK9/CycT1-inhibitory activity of compounds of the present invention at a high ATP concentration after preincubation of enzyme and test compounds was quantified employing the CDK9/CycT1 TR-FRET assay as described in the following paragraphs.
Recombinant full-length His-tagged human CDK9 and CycT1, expressed in insect cells and purified by Ni-NTA affinity chromatography, were purchased from Life Technologies (Cat. No PV4131). As substrate for the kinase reaction biotinylated peptide biotin-Ttds-YISPLKSPYKISEG (C-terminus in amide form) was used which can be purchased e.g. form the company JERINI peptide technologies (Berlin, Germany).
For the assay 50 nanoL of a 100 fold concentrated solution of the test compound in DMSO was pipetted into either a black low volume 384 well microtiter plate or a black 1536 well microtiter plate (both Greiner Bio-One, Frickenhausen, Germany), 2 microL of a solution of CDK9/CycT1 in aqueous assay buffer [50 millimol/L Tris/HCl PH 8.0, 10 millimol/L MgCl2, 1.0 millimol/L dithiothreitol, 0.1 millimol/L sodium ortho-vanadate, 0.01% (v/v) Nonidet-P40 (Sigma)] were added and the mixture was incubated for 15 min at 22° C. to allow pre-binding of the test compounds to the enzyme before the start of the kinase reaction. Then the kinase reaction was started by the addition of 3 microL of a solution of adenosine-tri-phosphate (ATP, 3.3 millimol/L=>final conc. in the 5 microL assay volume is 2 millimol/L) and substrate (1.25 micromol/L=>final conc. in the 5 microL assay volume is 0.75 micromol/L) in assay buffer and the resulting mixture was incubated for a reaction time of 25 min at 22° C. The concentration of CDK9/CycT1 was adjusted depending of the activity of the enzyme lot and was chosen appropriate to have the assay in the linear range, typical concentrations were in the range of 0.5 microg/ml. The reaction was stopped by the addition of 3 microL of a solution of TR-FRET detection reagents (0.33 micromol/L streptavidine-XL665 [Cisbio Bioassays, Codolet, France] and 1.67 nanomol/L anti-RB (pSer807/pSer811)-antibody from BD Pharmingen [#558389] and 2 nanomol/L LANCE EU-W1024 labeled anti-mouse IgG antibody [Perkin-Elmer, product no. AD0077]) in an aqueous EDTA-solution (167 millimol/L EDTA, 0.2% (w/v) bovine serum albumin in 100 millimol/L HEPES pH 7.5).
The resulting mixture was incubated 1 h at 22° C. to allow the formation of complex between the phosphorylated biotinylated peptide and the detection reagents. Subsequently the amount of phosphorylated substrate was evaluated by measurement of the resonance energy transfer from the Eu-chelate to the streptavidine-XL. Therefore, the fluorescence emissions at 620 nm and 665 nm after excitation at 350 nm was measured in a TR-FRET reader, e.g. a Pherastar (BMG Labtechnologies, Offenburg, Germany) or a Viewlux (Perkin-Elmer). The ratio of the emissions at 665 nm and at […] was taken as the measure for the amount of phosphorylated substrate. The data were normalised (enzyme reaction without inhibitor=0% inhibition, all other assay components but no enzyme=100% inhibition).

[1] = system: MDA-MB-231, human breast cancer cells; assay: Proliferation assay MDA-MB-231 (crystal violet); type: cell-based; details: 96 h, MDA-MB-231 parental cells, 4 days, median, read-out: Prolif-MDA MB-231, IC50 - [mol/l] (median)
Method: Human tumour cells were originally obtained from the American Type Culture Collection (ATCC), or from the Deutsche Sammlung von Mikroorganismen und Zellkulturen (DSMZ, German Collection of Microorganisms and Cell Cultures). Cultivated tumour cells (CAL-120, human breast adenocarcinoma cells, DSMZ ACC-459; MDA-MB-231, human breast cancer cells, ATCC HTB-26) were plated at a density of 4,000 cells/well in a 96-well multitier plate in 200 microL of their respective growth medium supplemented 10% fetal calf serum. After 24 hours, the cells of one plate (zero-point plate) were stained with crystal violet (see below), while the medium of the other plates was supplemented with the test substances in various concentrations (0 micromol/L, as well as in the range of 0.01-10 micromol/L; the final concentration of the solvent dimethyl sulfoxide was adjusted to 0.1%) using a Tecan HP D300 Digital Dispenser. The cells were incubated for 4 days in the presence of test substances. Cell proliferation was determined by staining the cells with crystal violet: the cells were fixed by adding 20 microL/measuring point of an 11% glutaric aldehyde solution for 15 minutes at room temperature. After three washing cycles of the fixed cells with water, the plates were dried at room temperature. The cells were stained by adding 100 microL/measuring point of a 0.1% crystal violet solution (pH 3.0). After three washing cycles of the stained cells with water, the plates were dried at room temperature. The dye was dissolved by adding 100 microL/measuring point of a 10% acetic acid solution. The extinction was determined by photometry at a wavelength of 595 nm. The change of cell number, in percent, was calculated by normalization of the measured values to the extinction values of the zero-point plate (=0%) and the extinction of the untreated (0 μM) cells (=100%). The IC50 values (inhibitory concentration at 50% of maximal effect) were determined by means of a 4 parameter fit.

CDK12 = CDK12 (Homo sapiens (Human), UniProt Q9NYV4); assay: CDK12 nuclear protein level: immunofluorescence/high content analysis in CAL-120 cells; type: cell-based; details: 24 h, nuclear CDK12 staining intensity, median, read-out: CDK12 degradation IF, DC50 - [mol/l] (median)
CDK12, sequence (Q9NYV4 whole entry): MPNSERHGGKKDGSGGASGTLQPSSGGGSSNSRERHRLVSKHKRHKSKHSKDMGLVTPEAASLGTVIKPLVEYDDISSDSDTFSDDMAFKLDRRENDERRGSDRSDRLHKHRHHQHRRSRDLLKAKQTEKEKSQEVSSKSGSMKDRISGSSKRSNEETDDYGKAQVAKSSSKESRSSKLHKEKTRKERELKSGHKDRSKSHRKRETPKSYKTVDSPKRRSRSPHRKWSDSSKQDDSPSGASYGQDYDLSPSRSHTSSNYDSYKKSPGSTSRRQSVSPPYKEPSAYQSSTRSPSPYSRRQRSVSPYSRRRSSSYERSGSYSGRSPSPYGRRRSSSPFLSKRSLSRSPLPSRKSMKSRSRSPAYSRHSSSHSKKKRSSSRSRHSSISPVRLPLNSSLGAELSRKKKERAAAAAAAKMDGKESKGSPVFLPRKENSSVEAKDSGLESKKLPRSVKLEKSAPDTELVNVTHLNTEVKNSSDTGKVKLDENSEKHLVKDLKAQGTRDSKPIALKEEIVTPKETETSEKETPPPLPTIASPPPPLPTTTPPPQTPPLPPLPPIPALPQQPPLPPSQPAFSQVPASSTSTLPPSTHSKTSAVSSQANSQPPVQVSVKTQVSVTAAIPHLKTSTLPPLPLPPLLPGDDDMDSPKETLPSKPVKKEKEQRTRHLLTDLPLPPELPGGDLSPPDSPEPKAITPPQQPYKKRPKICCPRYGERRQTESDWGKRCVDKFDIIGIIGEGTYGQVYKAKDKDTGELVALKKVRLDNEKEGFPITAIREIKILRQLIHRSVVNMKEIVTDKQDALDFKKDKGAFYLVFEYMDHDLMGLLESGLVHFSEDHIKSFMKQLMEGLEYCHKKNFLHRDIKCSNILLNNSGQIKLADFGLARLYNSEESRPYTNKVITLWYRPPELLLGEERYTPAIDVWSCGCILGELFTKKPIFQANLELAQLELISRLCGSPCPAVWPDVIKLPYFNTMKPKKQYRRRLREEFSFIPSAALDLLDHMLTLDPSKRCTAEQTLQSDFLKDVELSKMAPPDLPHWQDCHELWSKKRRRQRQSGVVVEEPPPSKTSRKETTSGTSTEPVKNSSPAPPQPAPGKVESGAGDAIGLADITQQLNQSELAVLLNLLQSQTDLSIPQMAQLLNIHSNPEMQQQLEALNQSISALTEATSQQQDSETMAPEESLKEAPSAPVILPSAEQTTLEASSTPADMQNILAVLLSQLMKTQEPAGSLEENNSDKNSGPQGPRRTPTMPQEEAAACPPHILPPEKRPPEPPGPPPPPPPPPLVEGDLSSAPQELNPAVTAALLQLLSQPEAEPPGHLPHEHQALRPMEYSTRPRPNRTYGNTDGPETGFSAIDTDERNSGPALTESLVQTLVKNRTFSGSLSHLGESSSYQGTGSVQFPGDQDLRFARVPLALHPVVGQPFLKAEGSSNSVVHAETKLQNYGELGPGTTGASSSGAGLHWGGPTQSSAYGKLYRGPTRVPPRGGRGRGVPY
CDK12, sequence (O75909 whole entry partner): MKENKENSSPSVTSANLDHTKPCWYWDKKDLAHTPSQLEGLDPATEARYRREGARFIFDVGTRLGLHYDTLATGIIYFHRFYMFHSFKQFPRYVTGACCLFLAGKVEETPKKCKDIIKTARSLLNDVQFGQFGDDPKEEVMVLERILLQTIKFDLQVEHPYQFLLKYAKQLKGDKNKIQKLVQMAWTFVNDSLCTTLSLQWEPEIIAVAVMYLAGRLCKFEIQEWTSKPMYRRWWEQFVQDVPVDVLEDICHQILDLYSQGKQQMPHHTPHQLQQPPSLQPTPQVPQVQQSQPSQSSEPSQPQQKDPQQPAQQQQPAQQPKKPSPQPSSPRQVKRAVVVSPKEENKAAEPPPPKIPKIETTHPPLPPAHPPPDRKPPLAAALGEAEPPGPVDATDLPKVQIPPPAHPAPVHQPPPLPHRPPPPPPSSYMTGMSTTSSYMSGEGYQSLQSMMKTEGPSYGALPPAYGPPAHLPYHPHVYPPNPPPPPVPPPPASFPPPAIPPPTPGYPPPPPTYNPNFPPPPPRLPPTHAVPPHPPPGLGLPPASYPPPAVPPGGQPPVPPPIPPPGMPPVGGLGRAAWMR
Method: In the context of the present invention, the term “DC50 CDK12” refers to the DC50 values obtained according to the assay described in this section (7) herein below, i.e. the DC50 values for the degradation of CDK12.
CAL-120 human breast cancer cells (DSMZ ACC 459) are seeded in 1536-well microtiter plates (800 cells per well) containing 50 nanoL of compounds in Dose-Response. Control wells received DMSO or Example 4. Plates are then incubated for 24 h at 37° C. in an humidified incubator and fixed with 4% PFA for 10 min. Then immunofluorescence (IF) against CDK12 (CellSignalling CDK12 Antibody #11973, rabbit, 1:100 dilution) is performed using standard IF protocols. Cells are then stained with Hoechst 33342 (Life Technologies, H-1399, 0.1 microg/ml) and imaged on an automated confocal microscopy system (e.g. Perkin Elmer Opera Phenix). Nuclear and cytoplasmic intensity as well as the nuclear/cytoplasmic intensity ratio is determined by automated image analysis using custom generated scripts (MetaXpress). Data is then transferred to Genedata Screener software, normalized to DMSO and control and DC50 values (degrading concentration to achieve 50% reduction of nuclear CDK12 staining intensity relative to controls) are reported.

CDK9/CyclinT1, sequence (P50750 whole entry): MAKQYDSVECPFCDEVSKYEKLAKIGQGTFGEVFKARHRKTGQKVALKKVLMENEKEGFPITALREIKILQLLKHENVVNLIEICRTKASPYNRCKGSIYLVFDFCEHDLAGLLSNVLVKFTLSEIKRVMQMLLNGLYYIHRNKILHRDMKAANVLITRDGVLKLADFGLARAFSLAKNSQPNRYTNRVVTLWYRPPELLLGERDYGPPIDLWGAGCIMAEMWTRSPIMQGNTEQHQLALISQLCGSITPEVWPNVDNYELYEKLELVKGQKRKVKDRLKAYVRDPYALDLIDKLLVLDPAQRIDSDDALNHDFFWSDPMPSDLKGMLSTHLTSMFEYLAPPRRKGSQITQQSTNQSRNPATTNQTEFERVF
CDK9/CyclinT1, sequence (O60563 whole entry partner): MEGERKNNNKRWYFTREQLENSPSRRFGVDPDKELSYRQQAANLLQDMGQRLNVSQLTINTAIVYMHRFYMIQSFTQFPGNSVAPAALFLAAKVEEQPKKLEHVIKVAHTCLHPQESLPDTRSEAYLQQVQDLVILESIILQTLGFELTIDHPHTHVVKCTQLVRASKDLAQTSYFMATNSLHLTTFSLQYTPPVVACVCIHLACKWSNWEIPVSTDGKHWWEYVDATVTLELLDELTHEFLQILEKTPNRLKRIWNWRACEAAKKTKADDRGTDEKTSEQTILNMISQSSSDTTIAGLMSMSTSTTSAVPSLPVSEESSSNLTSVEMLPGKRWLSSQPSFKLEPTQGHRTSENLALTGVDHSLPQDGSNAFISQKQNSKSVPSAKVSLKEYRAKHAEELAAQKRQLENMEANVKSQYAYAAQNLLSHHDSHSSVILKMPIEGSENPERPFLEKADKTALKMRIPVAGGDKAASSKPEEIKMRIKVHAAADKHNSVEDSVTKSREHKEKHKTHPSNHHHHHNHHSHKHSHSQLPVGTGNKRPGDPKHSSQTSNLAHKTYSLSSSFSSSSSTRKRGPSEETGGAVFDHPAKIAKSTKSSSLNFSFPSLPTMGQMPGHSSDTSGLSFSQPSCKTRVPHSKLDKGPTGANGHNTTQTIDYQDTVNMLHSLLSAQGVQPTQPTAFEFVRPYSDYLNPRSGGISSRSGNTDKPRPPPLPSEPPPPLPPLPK

**Q.** How did the IC50 (CDK9/CyclinT1) turn out when `Cc1ccc(-c2nnc(CNc3nc(N4CCOCC4)nc4c(C(F)(F)F)cnn34)[nH]2)cn1` [Example 22, N-{[5-(6-methylpyridin-3-yl)-4H-1,2,4-triazol-3-yl]methyl}-2-(morpholin-4-yl)-8-(trifluoromethyl)pyrazolo[1,5-a][1,3,5]triazin-4-amine] was run?
**A.** 1890 nM

**Q.** And the IC50 [1]?
**A.** 286 nM

**Q.** What about the DC50 (CDK12) of the same molecule?
**A.** > 1000 nM

**Q.** Which IC50 (CDK9/CyclinT1) does the source give for `COc1ccc(-c2cnc(CNc3nc(N4CCOCC4)nc4c(C(F)(F)F)cnn34)[nH]2)cn1` [Example 21, N-{[5-(6-methoxypyridin-3-yl)-1H-imidazol-2-yl]methyl}-2-(morpholin-4-yl)-8-(trifluoromethyl)pyrazolo[1,5-a][1,3,5]triazin-4-amine] here?
**A.** 3050 nM

**Q.** What about the IC50 [1] of the same molecule?
**A.** 98.3 nM

**Q.** What about the DC50 (CDK12) of the same molecule?
**A.** > 1000 nM

**Q.** How did the IC50 (CDK9/CyclinT1) turn out when `FC(F)(F)Oc1ccc(-c2cnc(CNc3nc(N4CCOCC4)nn4c(C(F)(F)F)cnc34)[nH]2)cc1` [Example 8, 2-(morpholin-4-yl)-N-({5-[4-(trifluoromethoxy)phenyl]-1H-imidazol-2-yl}methyl)-7-(trifluoromethyl)imidazo[2,1-f][1,2,4]triazin-4-amine] was run?
**A.** > 20000 nM

**Q.** What about the IC50 [1] of the same molecule?
**A.** 114 nM

**Q.** And the DC50 (CDK12)?
**A.** 893 nM

**Q.** How did the IC50 (CDK9/CyclinT1) turn out when `FC(F)(F)c1ccc(-c2nnc(CNc3nc(N4CCOCC4)nn4c(C(F)(F)F)cnc34)[nH]2)cn1` [Example 20, 2-(morpholin-4-yl)-7-(trifluoromethyl)-N-({5-[6-(trifluoromethyl)pyridin-3-yl]-4H-1,2,4-triazol-3-yl}methyl)imidazo[2,1-f][1,2,4]triazin-4-amine] was run?
**A.** 847 nM

**Q.** And the IC50 [1]?
**A.** 52.9 nM

**Q.** And the DC50 (CDK12)?
**A.** > 1000 nM

**Q.** What does the source list for `FC(F)(F)Oc1ccc(-c2nnc(CNc3nc(N4CCOCC4)nc4c(C(F)(F)F)cnn34)[nH]2)cc1` [Example 5, 2-(morpholin-4-yl)-N-({5-[4-(trifluoromethoxy)phenyl]-4H-1,2,4-triazol-3-yl}methyl)-8-(trifluoromethyl)pyrazolo[1,5-a][1,3,5]triazin-4-amine]?
**A.** IC50 (CDK9/CyclinT1): 17800 nM; IC50 [1]: 319 nM; DC50 (CDK12): 1000 nM

**Q.** What does the source list for `FC(F)(F)c1ccc(-c2nnc(CNc3nc(N4CCOCC4)nc4c(Br)cnn34)[nH]2)cc1` [Example 1, 8-bromo-2-(morpholin-4-yl)-N-({5-[4-(trifluoromethyl)phenyl]-4H-1,2,4-triazol-3-yl}methyl)pyrazolo[1,5-a][1,3,5]triazin-4-amine]?
**A.** IC50 (CDK9/CyclinT1): 4580 nM; DC50 (CDK12): 2380 nM

**Q.** With `FC(F)(F)Oc1ccc(-c2nnc(CNc3nc(N4CCOCC4)nn4c(C(F)(F)F)cnc34)[nH]2)cn1` [Example 19, 2-(morpholin-4-yl)-N-({5-[6-(trifluoromethoxy)pyridin-3-yl]-4H-1,2,4-triazol-3-yl}methyl)-7-(trifluoromethyl)imidazo[2,1-f][1,2,4]triazin-4-amine] as the molecule, how does the IC50 (CDK9/CyclinT1) read?
**A.** 506 nM

**Q.** And the IC50 [1]?
**A.** 37.5 nM

**Q.** How did the IC50 [1] turn out when `COc1ccc(-c2nnc(CNc3nc(N4CCOCC4)nc4c(C(F)(F)F)cnn34)[nH]2)cn1` [Example 15, N-{[5-(6-methoxypyridin-3-yl)-4H-1,2,4-triazol-3-yl]methyl}-2-(morpholin-4-yl)-8-(trifluoromethyl)pyrazolo[1,5-a][1,3,5]triazin-4-amine] was run?
**A.** 259 nM

**Q.** And the DC50 (CDK12)?
**A.** > 1000 nM

**Q.** How did the IC50 [1] turn out when `COc1ccc(-c2nnc(CNc3nc(N4CCOCC4)nn4c(C(F)(F)F)cnc34)[nH]2)cn1` [Example 18, N-{[5-(6-methoxypyridin-3-yl)-4H-1,2,4-triazol-3-yl]methyl}-2-(morpholin-4-yl)-7-(trifluoromethyl)imidazo[2,1-f][1,2,4]triazin-4-amine] was run?
**A.** 72.1 nM

**Q.** What about the DC50 (CDK12) of the same molecule?
**A.** > 1000 nM

**Q.** `FC(F)(F)c1ccc(-c2cnc(CNc3nc(N4CCOCC4)nc4c(C(F)(F)F)cnn34)[nH]2)cn1` [Example 24, 2-(morpholin-4-yl)-8-(trifluoromethyl)-N-({5-[6-(trifluoromethyl)pyridin-3-yl]-1H-imidazol-2-yl}methyl)pyrazolo[1,5-a][1,3,5]triazin-4-amine] was tested. Which IC50 [1] did it give?
**A.** 21.7 nM

**Q.** And the DC50 (CDK12)?
**A.** > 1000 nM

**Q.** For `FC(F)(F)c1ccc(-c2cnc(CNc3nc(N4CCOCC4)nc4c(C(F)(F)F)cnn34)[nH]2)cc1` [Example 9, 2-(morpholin-4-yl)-8-(trifluoromethyl)-N-({5-[4-(trifluoromethyl)phenyl]-1H-imidazol-2-yl}methyl)pyrazolo[1,5-a][1,3,5]triazin-4-amine], which IC50 (CDK9/CyclinT1) is on record?
**A.** > 19100 nM

**Q.** What about the IC50 [1] of the same molecule?
**A.** 190 nM

**Q.** What about the DC50 (CDK12) of the same molecule?
**A.** 950 nM

**Q.** With `Cc1ccc(-c2nnc(CNc3nc(N4CCOCC4)nn4c(C(F)(F)F)cnc34)[nH]2)cn1` [Example 23, N-{[5-(6-methylpyridin-3-yl)-4H-1,2,4-triazol-3-yl]methyl}-2-(morpholin-4-yl)-7-(trifluoromethyl)imidazo[2,1-f][1,2,4]triazin-4-amine] as the molecule, how does the IC50 (CDK9/CyclinT1) read?
**A.** 624 nM

**Q.** What about the IC50 [1] of the same molecule?
**A.** 75.8 nM

**Q.** What about the DC50 (CDK12) of the same molecule?
**A.** > 1000 nM

**Q.** Which IC50 (CDK9/CyclinT1) does the source give for `FC(F)(F)c1ccc(-c2cnc(CNc3nc(N4CCOCC4)nc4c(Br)cnn34)[nH]2)cc1` [Example 3, 8-bromo-2-(morpholin-4-yl)-N-({5-[4-(trifluoromethyl)phenyl]-1H-imidazol-2-yl}methyl)pyrazolo[1,5-a][1,3,5]triazin-4-amine] here?
**A.** 15400 nM

**Q.** What about the DC50 (CDK12) of the same molecule?
**A.** > 2880 nM

**Q.** How did the IC50 (CDK9/CyclinT1) turn out when `FC(F)(F)Oc1ccc(-c2nnc(CNc3nc(N4CCOCC4)nc4c(Br)cnn34)[nH]2)cc1` [Example 2, 8-bromo-2-(morpholin-4-yl)-N-({5-[4-(trifluoromethoxy)phenyl]-4H-1,2,4-triazol-3-yl}methyl)pyrazolo[1,5-a][1,3,5]triazin-4-amine] was run?
**A.** 6350 nM

**Q.** What about the DC50 (CDK12) of the same molecule?
**A.** > 2790 nM
